Reference: ChEMBL document CHEMBL1201862, “PubChem BioAssay data set” (2004)
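Compound exposure: 48 hours, 5 concentrations, 96-well plates. Here, GI50 denotes the concentration required for 50% inhibition of growth.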 Active and inactive are the calls of the source. Cut-off read from the data, not from the text of the source: active = GI50 up to about 1.1 µM and inactive = higher.

Tests used:
Test in all cases: NCI tumour cell line growth inhibition, 48 h
CCRF-CEM = test system: CCRF-CEM
UACC-62 = test system: UACC-62
NCI-H460 = test system: NCI-H460
IGROV-1 = test system: IGROV-1
SR = test system: SR
OVCAR-5 = test system: OVCAR-5
SK-MEL-2 = test system: SK-MEL-2
NCI-H226 = test system: NCI-H226
ACHN = test system: ACHN
MCF7 = test system: MCF7
KM12 = test system: KM12
UO-31 = test system: UO-31
UACC-257 = test system: UACC-257
HCT-116 = test system: HCT-116
HCT-15 = test system: HCT-15
NCI/ADR-RES = test system: NCI/ADR-RES
A498 = test system: A498
DU-145 = test system: DU-145
COLO 205 = test system: COLO 205
TK-10 = test system: TK-10
PC-3 = test system: PC-3
Hs-578T = test system: Hs-578T
U-251 = test system: U-251
OVCAR-8 = test system: OVCAR-8
SF-268 = test system: SF-268
SW-620 = test system: SW-620
OVCAR-3 = test system: OVCAR-3
SNB-19 = test system: SNB-19
SF-295 = test system: SF-295
HOP-62 = test system: HOP-62
T47D = test system: T47D
K562 = test system: K562
OVCAR-4 = test system: OVCAR-4
786-0 = test system: 786-0
HOP-92 = test system: HOP-92
SF-539 = test system: SF-539
LOX IMVI = test system: LOX IMVI
EKVX = test system: EKVX
HCC 2998 = test system: HCC 2998
Malme-3M = test system: Malme-3M
MDA-MB-435 = test system: MDA-MB-435
SK-MEL-5 = test system: SK-MEL-5
NCI-H23 = test system: NCI-H23
CAKI-1 = test system: CAKI-1
A549 = test system: A549
NCI-H522 = test system: NCI-H522
MDA-MB-231 = test system: MDA-MB-231
M14 = test system: M14
SN12C = test system: SN12C
HL-60 = test system: HL-60
RXF 393 = test system: RXF 393
HT-29 = test system: HT-29
SK-MEL-28 = test system: SK-MEL-28
MOLT-4 = test system: MOLT-4
RPMI-8226 = test system: RPMI-8226
BT-549 = test system: BT-549
SK-OV-3 = test system: SK-OV-3
SNB-75 = test system: SNB-75

## CCOC(=O)c1c(N2CCN(C)CC2)[nH]c(=O)c(C(c2c(Cl)cccc2Cl)c2c(O)c(C(=O)OCC)c(N3CCN(C)CC3)[nH]c2=O)c1O
CCRF-CEM
  GI50: 31 µM (inactive)
UACC-62
  GI50: 21.5 µM (inactive)
NCI-H460
  GI50: 28.1 µM (inactive)
IGROV-1
  GI50: 20.7 µM (inactive)
SR
  GI50: 21.9 µM (inactive)
OVCAR-5
  GI50: 43 µM (inactive)
SK-MEL-2
  GI50: 26 µM (inactive)
NCI-H226
  GI50: 28.6 µM (inactive)
ACHN
  GI50: 20.7 µM (inactive)
MCF7
  GI50: 29.5 µM (inactive)
KM12
  GI50: 23.5 µM (inactive)
UO-31
  GI50: 21.5 µM (inactive)
UACC-257
  GI50: 21.3 µM (inactive)
HCT-116
  GI50: 38.1 µM (inactive)
HCT-15
  GI50: 30.7 µM
NCI/ADR-RES
  GI50: 71.1 µM (inactive)
A498
  GI50: 22.1 µM (inactive)
DU-145
  GI50: 17.8 µM (inactive)
COLO 205
  GI50: 33.1 µM (inactive)
TK-10
  GI50: 30.5 µM (inactive)
PC-3
  GI50: 22.5 µM (inactive)
Hs-578T
  GI50: 33.8 µM (inactive)
U-251
  GI50: 23.1 µM (inactive)
OVCAR-8
  GI50: 22 µM (inactive)
SF-268
  GI50: 24.2 µM (inactive)
SW-620
  GI50: 31.8 µM (inactive)
OVCAR-3
  GI50: 34.8 µM (inactive)
SNB-19
  GI50: 20.4 µM (inactive)
SF-295
  GI50: 28.1 µM (inactive)
HOP-62
  GI50: 30.3 µM (inactive)
T47D
  GI50: 16.5 µM (inactive)
K562
  GI50: 25.8 µM (inactive)
OVCAR-4
  GI50: 21.5 µM (inactive)
786-0
  GI50: 27.7 µM (inactive)
HOP-92
  GI50: 19.1 µM (inactive)
SF-539
  GI50: 19.4 µM (inactive)
LOX IMVI
  GI50: 34.5 µM (inactive)
EKVX
  GI50: 14.5 µM (inactive)
HCC 2998
  GI50: 36.8 µM (inactive)
Malme-3M
  GI50: 22.6 µM (inactive)
MDA-MB-435
  GI50: 25.8 µM (inactive)
SK-MEL-5
  GI50: 20.7 µM (inactive)
NCI-H23
  GI50: 40.3 µM (inactive)
CAKI-1
  GI50: 26.5 µM (inactive)
A549
  GI50: 27.9 µM (inactive)
NCI-H522
  GI50: 21.9 µM (inactive)
MDA-MB-231
  GI50: 25.5 µM (inactive)
M14
  GI50: 30 µM (inactive)
SN12C
  GI50: 26.3 µM (inactive)
HL-60
  GI50: 19.5 µM (inactive)
RXF 393
  GI50: 18.2 µM (inactive)
HT-29
  GI50: 19.8 µM (inactive)
SK-MEL-28
  GI50: 17.9 µM (inactive)
MOLT-4
  GI50: 23.5 µM (inactive)
RPMI-8226
  GI50: 39.2 µM (inactive)
BT-549
  GI50: 20.6 µM (inactive)

## CC1=CC[C@](C)(O)[C@@]2(C)CC[C@H]3C(=C(C)C)C(=O)C[C@]3(C)C[C@H]12
CCRF-CEM
  GI50: 10.8 µM (inactive)
UACC-62
  GI50: 11.9 µM (inactive)
IGROV-1
  GI50: 19.3 µM (inactive)
SK-OV-3
  GI50: > 50 µM (inactive)
SR
  GI50: 12.5 µM (inactive)
OVCAR-5
  GI50: > 50 µM (inactive)
SK-MEL-2
  GI50: > 50 µM (inactive)
NCI-H226
  GI50: > 50 µM (inactive)
ACHN
  GI50: 38.7 µM (inactive)
MCF7
  GI50: 31.3 µM (inactive)
KM12
  GI50: 12.9 µM (inactive)
UO-31
  GI50: 28.8 µM (inactive)
UACC-257
  GI50: > 50 µM (inactive)
HCT-116
  GI50: 14.1 µM (inactive)
HCT-15
  GI50: 12.3 µM
NCI/ADR-RES
  GI50: 16.5 µM (inactive)
A498
  GI50: > 50 µM (inactive)
DU-145
  GI50: > 50 µM (inactive)
COLO 205
  GI50: 45.5 µM (inactive)
TK-10
  GI50: > 50 µM (inactive)
PC-3
  GI50: 21.4 µM (inactive)
Hs-578T
  GI50: 38.2 µM (inactive)
U-251
  GI50: > 50 µM (inactive)
OVCAR-8
  GI50: 29.2 µM (inactive)
SF-268
  GI50: > 50 µM (inactive)
SW-620
  GI50: 27 µM (inactive)
OVCAR-3
  GI50: 36.3 µM (inactive)
SNB-19
  GI50: > 50 µM (inactive)
SF-295
  GI50: > 50 µM (inactive)
HOP-62
  GI50: 42.2 µM (inactive)
T47D
  GI50: 28.9 µM (inactive)
K562
  GI50: 9.2 µM (inactive)
SNB-75
  GI50: 26.5 µM (inactive)
OVCAR-4
  GI50: > 50 µM (inactive)
786-0
  GI50: 15.7 µM (inactive)
HOP-92
  GI50: > 50 µM (inactive)
SF-539
  GI50: > 50 µM (inactive)
LOX IMVI
  GI50: 7.93 µM (inactive)
EKVX
  GI50: > 50 µM (inactive)
HCC 2998
  GI50: > 50 µM (inactive)
MDA-MB-435
  GI50: 18.7 µM (inactive)
SK-MEL-5
  GI50: 27.8 µM (inactive)
NCI-H23
  GI50: 34.1 µM (inactive)
CAKI-1
  GI50: 16 µM (inactive)
A549
  GI50: 46.8 µM (inactive)
NCI-H522
  GI50: 10.4 µM (inactive)
MDA-MB-231
  GI50: > 50 µM (inactive)
M14
  GI50: 24.8 µM (inactive)
SN12C
  GI50: 34.8 µM (inactive)
HL-60
  GI50: 6.55 µM (inactive)
RXF 393
  GI50: 30 µM (inactive)
HT-29
  GI50: 24.8 µM (inactive)
SK-MEL-28
  GI50: > 50 µM (inactive)
MOLT-4
  GI50: 8.07 µM (inactive)
RPMI-8226
  GI50: 11.2 µM (inactive)
BT-549
  GI50: 13.8 µM (inactive)
